The values that follow are results of earlier work, collected in patent US7348299B2, “Cleansing bar with distributed polymeric network providing enhanced delivery” (Conopco, Inc., priority 2005, dated 2008).

The conditions of data set [1]: single component of 1:1 model perfume; first/second component.
The conditions of data set [2]: single component of 1:1 model perfume; no unit in table, K in Atm.

Regarding `CC(=O)OCc1ccccc1` [Benzyl acetate], the “φo/w (octanol/water partition coefficient)” value in data set [1] is listed as 81. In addition, in data set [2], the “K (volatility constant)” value is recorded as 0.32.
`C=C(C)[C@H]1CC=C(C)CC1` [Limonene]: the “K (volatility constant)” value in data set [2] is recorded as 98.
With `OCCc1ccccc1` [Phenylethylalcohol], in data set [1], the “φo/w (octanol/water partition coefficient)” value was 22.9. In data set [2], the “K (volatility constant)” value is reported as 0.1.
For the molecule `CCC(C)(CCCC(C)C)OC(C)=O` (stereo not shown) [Tetrahydrolinalylacetate], in data set [1], the “φo/w (octanol/water partition coefficient)” value is 31,600. For the same molecule, the “K (volatility constant)” value in data set [2] is 5.5.
On to `CC=O` [acetaldehyde], for which, in data set [1], the “φo/w (octanol/water partition coefficient)” value is recorded as 167. Besides, the “K (volatility constant)” value in data set [2] was 0.008.
With `CC1=CCC2CC1C2(C)C` (stereo not drawn) [alpha-pinene], the “φo/w (octanol/water partition coefficient)” value in data set [1] is 29648. For the same molecule, in data set [2], the “K (volatility constant)” value is reported as 280.
For the molecule `C=CC(C)CCC=C(C)C` (stereo not shown) [citronellene], in data set [1], the “φo/w (octanol/water partition coefficient)” value is 43,651. For the same molecule, in data set [2], the “K (volatility constant)” value is given as 120.
`CC(=O)OCCC(C)CCC=C(C)C` (stereo not shown) [citronellyl acetate]: the “φo/w (octanol/water partition coefficient)” value in data set [1] is reported as 19,054. Moreover, the “K (volatility constant)” value in data set [2] is listed as 6.
As for `CC(CC=O)CCCC(C)(C)O` (stereo not shown) [hydroxycitonellal], in data set [1], the “φo/w (octanol/water partition coefficient)” value was 34.7. For the same molecule, the “K (volatility constant)” value in data set [2] is listed as 0.05.
For `CC(C=O)Cc1ccc(C(C)(C)C)cc1` (stereo not shown) [lilial], the “φo/w (octanol/water partition coefficient)” value in data set [1] is 32,360. For the same molecule, in data set [2], the “K (volatility constant)” value was 0.42.
Regarding `Cc1ccc(C(C)C)cc1` [p-cymene], in data set [1], the “φo/w (octanol/water partition coefficient)” value is recorded as 31,000. The “K (volatility constant)” value in data set [2] is recorded as 265.
For the molecule Methyl ionone, in data set [2], the “K (volatility constant)” value was 5.2.
